Experimental data: patent US20100316729A1, “Use of Hyperbaric Conditions to Provide Neuroprotection” (AIR PRODUCTS AND CHEMICALS, INC., priority 2007, published 2010)
Entries after “also recorded” stand apart in the source; their conditions may differ.

Tested on: organotypic hippocampal slice cultures (focal trauma to the CA1 region)
Experiment: in vitro model of traumatic brain injury: focal mechanical trauma to organotypic hippocampal slices, injury quantified by propidium iodide fluorescence
Type: cell-based, C57/BL6 mice
Conditions: for effect of added pressure of gas on development of total injury, highest added pressure / effect of added pressure of gas on development of total injury, low added pressures: gas added to 1 atm of 95% air/5% CO2, FIG. 4 / FIG. 5; for effect of added pressure of gas on development of total injury, highest added pressure: highest pressure tested (about 2 atm added, about 3 atm total); for effect of added pressure of gas on development of total injury, low added pressures: low added pressures (up to about 1 atm); for predicted level of normalized injury after 72 hours / observed degree of normalized injury after 72 hours: normobaric; for predicted level of normalized injury after 72 hours: 75% test gas replacing nitrogen, calculated from dashed lines of FIG. 4 / FIG. 5; for observed degree of normalized injury after 72 hours: 75% test gas/20% oxygen/5% CO2 (test gas substituted for nitrogen), 37° C., injury relative to control (75% nitrogen, 1 atm, 72 h) = 1
From the text: The properties of xenon and other gases were investigated in an in vitro model of traumatic brain injury (as described below in greater detail, under the heading “Example”). The model chosen involved creating a focal mechanical trauma centered on the CA1 region of cultured hippocampal brain slices, and assessing neurological injury using propidium iodide staining. A small solenoid retains a stylus 5 mm above a cultured hippocampal slice which is positioned using a micromanipulator. A fiber-optic light source illuminates the slice from beneath. As shown in (B) the stylus is constrained in a glass capillary and positioned just above the CA1 region of the hippocampus.
Organotypic hippocampal slice cultures were prepared as reported by Stoppini L, et al in “A simple method for organotypic cultures of nervous tissue” J Neurosci Methods 1991; 37:173-82, subject to some modifications. Briefly, brains were removed from seven-day-old C57/BL6 mice pups (Harlan UK Ltd., Bicester, Oxfordshire, UK) and placed in ice-cold “preparation” medium. The preparation medium contained Gey's balanced salt solution and 5 mg ml^−1 D-glucose (BDH Chemicals Ltd., Poole, Dorset, UK). The hippocampi were removed from the brains and 400 μm thick transverse slices were prepared using a McIllwain tissue chopper. Slices were transferred into ice-cold preparation medium, gently separated and then placed onto tissue culture inserts (Millicell-CM, Millipore Corporation, Billerica, Mass.) which were inserted into a six-well tissue culture plate. The wells contained “growth” medium which consisted of 50% Minimal Essential Media Eagle, 25% Hank's balanced salt solution, 25% inactivated horse serum, 2 mM L-glutamine, 5 mg ml^−1 D-glucose (BDH) and 1% antibiotic-antimycotic suspension. Slices were incubated at 37° C. in a 95% air/5% CO2 humidified atmosphere. The growth medium was changed every three days. Experiments were carried out after 14 days in culture.
After the hippocampal slices had been in culture for 14 days, the growth medium was changed to “experimental” medium. The experimental medium was serum-free and consisted of 75% Minimal Essential Media Eagle, 25% Hank's balanced salt solution, 2 mM L-glutamine, 5 mg ml^−1 D-glucose, 1% antibiotic-antimycotic suspension and 4.5 μM propidium iodide.
The trauma to the slices was produced with a specially designed apparatus (FIG. 1) which was based on published descriptions (Adamchik Y, et al “Methods to induce primary and secondary traumatic damage in organotypic hippocampal slice cultures” Brain Res Brain Res Protoc 2000; 5:153-8 and Adembri C, et al “Erythropoietin attenuates post-traumatic injury in organotypic hippocampal slices” J Neurotrauma 2004; 21:[…], 21). Under a stereomicroscope a stylus was positioned 5 mm above the CA1 region of the hippocampus using a three-axis micromanipulator. The stylus dropped onto the slice with an impact of 3.5 μJ when power to a small electromagnet was switched off. […] The distal part of the stylus was smooth and rounded in order to prevent perforation of the slice and the impact produced a focal injury with a diameter of 750±17 μm (mean±SD).
After traumatizing the CA1 region, the culture trays were transferred to a small pressure chamber which contained a high-speed fan for rapid gas mixing. The pressure chamber was capable of maintaining a constant pressure of up to six atmospheres for several days. The pressure chamber was housed in an incubator which was set at 37° C. for normothermic experiments or 32° C. for experiments at moderate hypothermia. Subsequently, the pressure chamber (gas volume 0.925 litre) was flushed with humidified control gas (95% air and 5% CO2) for 5 min at 5 litres min^−1 which ensures better than 99.99% gas replacement. After flushing, the pressure chamber was sealed, and slices under these conditions were considered to be the “injury controls” (75% nitrogen/20% oxygen/5% CO2). […]

Structure (SMILES) | effect of added pressure of gas on development of total injury, highest added pressure | effect of added pressure of gas on development of total injury, low added pressures | predicted level of normalized injury after 72 hours | observed degree of normalized injury after 72 hours | theoretical effect of increased gas level per se (effects of helium/pressure subtracted) (dashed line in FIG. 4, independent of the effects of pressure) | injury outcome with added nitrogen compared with added helium (nitrogen substituted for helium as added gas, all pressures 0.25-2 atm added, FIG. 4)
[He] [helium] | came back close to control levels | potent neuroprotection; also recorded: injury decreased | 0.75 | 0.67±0.10 |  | 
[Xe] [xenon] | toxicity; also recorded: significant neurotoxicity | marked neuroprotection | 0.59 | 0.50±0.04 |  | 
N#N [nitrogen] |  |  |  |  | detrimental in a fashion that is roughly linear with increasing amounts | significantly worse injury outcome
